We go through 37 compounds from patent publication US9023852B2, “1, 2, 4-thiadiazol-5-ylpiperazine derivatives useful in the treatment of neurodegenerative diseases” (Remynd NV, priority 2011, dated 2015).

This test relates to M17—3TAU(P301L) cells. The test is described as follows: Neuroblastoma tauopathy model: inhibition of TAU-induced cytotoxicity (LDH). Particulars: Homo sapiens, 168 h; inhibition of TAU-induced toxicity (LDH), 7 days differentiation with retinoic acid. It is filed as cell-based. Put shortly:
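BE-M17 neuroblastoma cells stably expressing human TAU-P301L, differentiated with RA (2.5 μM in added medium) for 7 days at 37 °C with compounds at a range of concentrations. Cytotoxicity as supernatant LDH over total LDH (Cytotox 96); EC50 from dose-dependent inhibition curve.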
The compound `COc1cc(CCN2CCN(c3nc(-c4ccc(F)c(F)c4)ns3)CC2)ccn1` [Example 106, 1-[3-(3,4-Difluoro-phenyl)-[1,2,4]thiadiazol-5-yl]-4-[2-(2-methoxy-pyridin-4-yl)-ethyl]-piperazine] returned an EC50 of 3 nM.
`Cc1ccccc1CN1CCN(c2nc(-c3ccc(F)c(F)c3)ns2)CC1` [Example 107, 1-[3-(3,4-Difluoro-phenyl)-[1,2,4]thiadiazol-5-yl]-4-(2-methyl-benzyl)-piperazine] registered an EC50 of 72.2 nM.
`N#Cc1ccc(-c2nsc(N3CCN(CCc4ccccc4)CC3)n2)cc1` [Example 108, 4-[5-(4-Phenethyl-piperazin-1-yl)-[1,2,4]thiadiazol-3-yl]-benzonitrile] displayed an EC50 of 7.9 nM.
With `N#Cc1cccc(-c2nsc(N3CCN(CCc4ccccc4)CC3)n2)c1` [Example 109, 3-[5-(4-Phenethyl-piperazin-1-yl)-[1,2,4]thiadiazol-3-yl]-benzonitrile], a half-maximal response (EC50) required 3 nM.
On to `N#Cc1ccc(-c2nsc(N3CCN(CCc4ccc(F)cc4)CC3)n2)cc1` [Example 110, 4-(5-{4-[2-(4-Fluoro-phenyl)-ethyl]piperazin-1-yl}-[1,2,4]thiadiazol-3-yl)-benzonitrile], for which a half-maximal effect (EC50) was put at 17.8 nM.
For the compound `N#Cc1cccc(-c2nsc(N3CCN(CCc4ccc(F)cc4)CC3)n2)c1` [Example 111, 3-(5-{4-[2-(4-Fluoro-phenyl)-ethyl]piperazin-1-yl}-[1,2,4]thiadiazol-3-yl)-benzonitrile], the 50% effective concentration (EC50) came to 3.1 nM.
The value for `N#Cc1ccc(-c2nsc(N3CCN(CCc4ccc(Cl)cc4)CC3)n2)cc1` [Example 112, 4-(5-{4-[2-(4-Chloro-phenyl)-ethyl]piperazin-1-yl}-[1,2,4]thiadiazol-3-yl)-benzonitrile] was 56.7 nM; that for `N#Cc1cccc(-c2nsc(N3CCN(CCc4ccc(Cl)cc4)CC3)n2)c1` [Example 113, 3-(5-{4-[2-(4-Chloro-phenyl)-ethyl]piperazin-1-yl}-[1,2,4]thiadiazol-3-yl)-benzonitrile] was 17.1 nM.
The compound `COc1ccc(CCN2CCN(c3nc(-c4ccc(C#N)cc4)ns3)CC2)cn1` [Example 114, 4-(5-{4-[2-(6-Methoxy-pyridin-3-yl)-ethyl]-piperazin-1-yl}-[1,2,4]thiadiazol-3-yl)-benzonitrile] registered an EC50 of 7.9 nM.
`COc1ccc(CCN2CCN(c3nc(-c4cccc(C#N)c4)ns3)CC2)cn1` [Example 115, 3-(5-{4-[2-(6-Methoxy-pyridin-3-yl)-ethyl]-piperazin-1-yl}-[1,2,4]thiadiazol-3-yl)-benzonitrile] displayed a 50% effective concentration (EC50) of 2.3 nM.
In turn, `COc1cc(CCN2CCN(c3nc(-c4ccc(C#N)cc4)ns3)CC2)ccn1` [Example 116, 4-(5-{4-[2-(2-Methoxy-pyridin-4-yl)-ethyl]-piperazin-1-yl}-[1,2,4]thiadiazol-3-yl)-benzonitrile] registered an EC50 of 14.1 nM.
The compound `COc1cc(CCN2CCN(c3nc(-c4cccc(C#N)c4)ns3)CC2)ccn1` [Example 117, 3-(5-{4-[2-(2-Methoxy-pyridin-4-yl)-ethyl]-piperazin-1-yl}-[1,2,4]thiadiazol-3-yl)-benzonitrile] came in with a 50% effective concentration (EC50) of 5.8 nM.
`Cc1ccccc1CN1CCN(c2nc(-c3ccc(C#N)cc3)ns2)CC1` [Example 118, 4-{5-[4-(2-Methyl-benzyl)-piperazin-1-yl]-[1,2,4]thiadiazol-3-yl}-benzonitrile]: the response was half-maximal at 181 nM (EC50).
Turning to `Cc1ccccc1CN1CCN(c2nc(-c3cccc(C#N)c3)ns2)CC1` [Example 119, 3-{5-[4-(2-Methyl-benzyl)-piperazin-1-yl]-[1,2,4]thiadiazol-3-yl}-benzonitrile], a half-maximal response (EC50) required 25 nM.
The figure for `Clc1ccnc(-c2nsc(N3CCN(CCc4ccccc4)CC3)n2)c1` [Example 120, 1-[3-(4-Chloro-pyridin-2-yl)-[1,2,4]thiadiazol-5-yl]-4-phenethyl-piperazine] is 16.1 nM; for `Clc1ccc(-c2nsc(N3CCN(CCc4ccccc4)CC3)n2)nc1` [Example 121, 1-[3-(5-Chloro-pyridin-2-yl)-[1,2,4]thiadiazol-5-yl]-4-phenethyl-piperazine] it is 34.6 nM.
`Fc1ccc(CCN2CCN(c3nc(-c4cc(Cl)ccn4)ns3)CC2)cc1` [Example 122, 1-[3-(4-Chloro-pyridin-2-yl)-[1,2,4]thiadiazol-5-yl]-4-[2-(4-fluoro-phenyl)-ethyl]-piperazine] displayed an EC50 of 42.5 nM.
`Clc1ccc(CCN2CCN(c3nc(-c4cc(Cl)ccn4)ns3)CC2)cc1` [Example 123, 1-[2-(4-Chloro-phenyl)-ethyl]-4-[3-(4-chloro-pyridin-2-yl)-[1,2,4]thiadiazol-5-yl]-piperazine]: the EC50 was determined as 94.6 nM.
`Clc1ccc(CCN2CCN(c3nc(-c4ccc(Cl)cn4)ns3)CC2)cc1` [Example 124, 1-[2-(4-Chloro-phenyl)-ethyl]-4-[3-(5-chloro-pyridin-2-yl)-[1,2,4]thiadiazol-5-yl]-piperazine] returned an EC50 of 458 nM.
Turning to `COc1ccc(CCN2CCN(c3nc(-c4cc(Cl)ccn4)ns3)CC2)cc1` [Example 125, 1-[3-(4-Chloro-pyridin-2-yl)-[1,2,4]thiadiazol-5-yl]-4-[2-(4-methoxy-phenyl)-ethyl]-piperazine], it took 3 nM to reach a half-maximal effect (EC50).
In turn, `COc1ccc(CCN2CCN(c3nc(-c4ccc(Cl)cn4)ns3)CC2)cc1` [Example 126, 1-[3-(5-Chloro-pyridin-2-yl)-[1,2,4]thiadiazol-5-yl]-4-[2-(4-methoxy-phenyl)-ethyl]-piperazine] showed an EC50 of 7 nM.
`COc1cc(CCN2CCN(c3nc(-c4cc(Cl)ccn4)ns3)CC2)ccn1` [Example 127, 1-[3-(4-Chloro-pyridin-2-yl)-[1,2,4]thiadiazol-5-yl]-4-[2-(2-methoxy-pyridin-4-yl)-ethyl]-piperazine]: the EC50 worked out at 109 nM.
`Cc1ccccc1CN1CCN(c2nc(-c3cc(Cl)ccn3)ns2)CC1` [Example 128, 1-[3-(4-Chloro-pyridin-2-yl)-[1,2,4]thiadiazol-5-yl]-4-(2-methyl-benzyl)-piperazine] returned an EC50 of 110 nM.
The value for `Cc1ccccc1CN1CCN(c2nc(-c3ccc(Cl)cn3)ns2)CC1` [Example 129, 1-[3-(5-Chloro-pyridin-2-yl)-[1,2,4]thiadiazol-5-yl]-4-(2-methyl-benzyl)-piperazine] was 92.3 nM.
`Clc1cncc(-c2nsc(N3CCN(CCc4ccccc4)CC3)n2)c1` [Example 130, 1-[3-(5-Chloro-pyridin-3-yl)-[1,2,4]thiadiazol-5-yl]-4-phenethyl-piperazine] yielded an EC50 of 0.9 nM.
The value for `Fc1ccc(CCN2CCN(c3nc(-c4cncc(Cl)c4)ns3)CC2)cc1` [Example 131, 1-[3-(5-Chloro-pyridin-3-yl)-[1,2,4]thiadiazol-5-yl]-4-[2-(4-fluoro-phenyl)-ethyl]-piperazine] was 1.3 nM; that for `Clc1ccc(CCN2CCN(c3nc(-c4cncc(Cl)c4)ns3)CC2)cc1` [Example 132, 1-[2-(4-Chloro-phenyl)-ethyl]-4-[3-(5-chloro-pyridin-3-yl)-[1,2,4]thiadiazol-5-yl]-piperazine] was 3.3 nM.
For `COc1cc(CCN2CCN(c3nc(-c4cncc(Cl)c4)ns3)CC2)ccn1` [Example 133, 1-[3-(5-Chloro-pyridin-3-yl)-[1,2,4]thiadiazol-5-yl]-4-[2-(2-methoxy-pyridin-4-yl)-ethyl]-piperazine], the 50% effective concentration (EC50) stood at 1.4 nM.
For `Fc1ccc(CCN2CCN(c3nc(-c4ccc(Cl)cc4)ns3)CC2)cc1F` [Example 134, 1-[3-(4-Chloro-phenyl)-[1,2,4]thiadiazol-5-yl]-4-[2-(3,4-difluoro-phenyl)-ethyl]-piperazine], the EC50 came out at 37.8 nM.
On to `Fc1ccc(CCN2CCN(c3nc(-c4cccc(Cl)c4)ns3)CC2)cc1F` [Example 135, 1-[3-(3-Chloro-phenyl)-[1,2,4]thiadiazol-5-yl]-4-[2-(3,4-difluoro-phenyl)-ethyl]-piperazine], for which the EC50 amounted to 4.5 nM.
`Fc1ccc(CCN2CCN(c3nc(-c4ccc(F)c(F)c4)ns3)CC2)cc1F` [Example 136, 1-[2-(3,4-Difluoro-phenyl)-ethyl]-4-[3-(3,4-difluoro-phenyl)-[1,2,4]thiadiazol-5-yl]-piperazine] yielded an EC50 of 6.2 nM.
`N#Cc1cccc(-c2nsc(N3CCN(CCc4ccc(F)c(F)c4)CC3)n2)c1` [Example 137, 3-(5-{4-[2-(3,4-Difluoro-phenyl)-ethyl]-piperazin-1-yl}-[1,2,4]thiadiazol-3-yl)-benzonitrile]: the EC50 stood at 6.2 nM.
In the case of `N#Cc1ccc(-c2nsc(N3CCN(CCc4ccc(F)c(F)c4)CC3)n2)cc1` [Example 138, 4-(5-{4-[2-(3,4-Difluoro-phenyl)-ethyl]piperazin-1-yl}-[1,2,4]thiadiazol-3-yl)-benzonitrile], it took 18.2 nM to reach a half-maximal effect (EC50).
The figure for `Fc1ccc(CCN2CCN(c3nc(-c4ccc(Cl)cn4)ns3)CC2)cc1F` [Example 139, 1-[3-(5-Chloro-pyridin-2-yl)-[1,2,4]thiadiazol-5-yl]-4-[2-(3,4-difluoro-phenyl)-ethyl]-piperazine] is 47.2 nM; for `FC(F)(F)c1cccc(CCN2CCN(c3nc(-c4ccc(Cl)cc4)ns3)CC2)c1` [Example 140, 1-[3-(4-Chloro-phenyl)-[1,2,4]thiadiazol-5-yl]-4-[2-(3-trifluoromethyl-phenyl)-ethyl]-piperazine] it is 72.6 nM.
Regarding `Fc1cccc(-c2nsc(N3CCN(CCc4cccc(C(F)(F)F)c4)CC3)n2)c1` [Example 141, 1-[3-(3-Fluoro-phenyl)-[1,2,4]thiadiazol-5-yl]-4-[2-(3-trifluoromethyl-phenyl)-ethyl]-piperazine], the EC50 came to 198 nM.
The figure for `FC(F)(F)c1cccc(CCN2CCN(c3nc(-c4cccc(Cl)c4)ns3)CC2)c1` [Example 142, 1-[3-(3-Chloro-phenyl)-[1,2,4]thiadiazol-5-yl]-4-[2-(3-trifluoromethyl-phenyl)-ethyl]-piperazine] is 3.7 nM.
